PMC8351955, “Targeting Mycobacterium tuberculosis response to environmental cues for the development of effective antitubercular drugs” (PLoS Biology, 2021)
Several values for one entry are separate records, joined by “and”; a condition that tells them apart may be missing. Identical values can stand only once. Like-named read-outs stand apart in the source and are kept apart here.

Tests used:
Mtb [1] = tested on: Mtb; set-up: method as in PMID 26574016, PMID 27227164; conditions: mice do not form caseous necrotic lesions; cited from earlier work
Mtb [2] = tested on: Mtb; set-up: method as in PMID 26574016, PMID 27227164; conditions: subset of mice failing to respond; cited from earlier work
[3] = tested on: WT Mtb (Erdman) in primary murine BMDMs; assay: Primary murine bone marrow-derived macrophage infection, CFU; assay type: cell-based, Mycobacterium tuberculosis; conditions: for CFU/ml: Fig. 2E, 10 µM
Method: C57BL/6J wild-type mice (Jackson Laboratories) were used for extraction of BMDMs. Cells were harvested and expanded in DMEM containing 10% FBS, 15% L-cell conditioned media, 2 mM L-glutamine, 1 mM sodium pyruvate, and penicillin/streptomycin as needed in a 37°C incubator in a 5% CO2 atmosphere. […] Macrophages were lysed with water containing 0.01% sodium dodecyl sulfate and a dilution series of the samples plated on 7H10 agar for CFU determination.

Mtb [4] = assay: Mtb growth assay in standard 7H9 medium (OD600); conditions: Fig. 2F
Text: (§1) Bacterial growth was tracked by measuring OD600 every 3 days for 12 days. […] Bacterial growth was tracked by measurement of OD600 every 3 days over 12 days.

[5] = tested on: Mtb growth in J774 macrophage-like cells; assay: J774 infection in 96-well plates, mKO fluorescence 6 days post-infection; assay type: cell-based, Mycobacterium tuberculosis; conditions: for % Growth: Fig. 2D, DMSO = 100
Method: For J774 infection in 96-well plates, 1.8 × 10^5 J774 cells were seeded per well in 180 μl of J774 infection media 1 day prior to infection. On the day of the assay, log-phase Mtb constitutively expressing mKO were pelleted and resuspended in 1 ml basal uptake buffer, passed 6× through a tuberculin syringe with a 25 G × 5/8″ needle, then resuspended in J774 infection media to a final OD600 = 0.2. Media was removed from 96-well plate containing the J774 cells, with 140 μl of fresh J774 infection media added back to each well. A volume of 40 μl of the Mtb suspension at OD600 = 0.2 was added to each well, followed by addition of appropriate concentration of compound or DMSO in a 20-μl final volume in J774 infection media (compound final concentration 10 μM, rifampicin final concentration 5 μM, DMSO final concentration 0.1%/well). Bacterial mKO fluorescence was read immediately after infection using a Biotek Synergy Neo2 microplate reader (bottom read monochromator, excitation 543/10 nm, emission 565/10 nm), and again 6 days post-infection. Plates were kept in humidified ziplock bags in a 37°C, 5% CO2 incubator. mKO fluorescence in DMSO-treated control samples were defined as 100% growth, and fluorescence observed in treatment conditions calculated as a percentage from that set value.

Mtb [6] = assay: Mtb growth assay in cholesterol medium (OD600); conditions: for OD600: Fig. 2G
Text: as §1

J774 cells = assay: Intracellular drug accumulation assay in J774 cells (LC-MS); conditions: 24 hours
[7] = tested on: CDC1551(rv2390c′::GFP) reporter Mtb strain; conditions: for Normalized % induction: Fig. 2C, DMSO = 100
Mtb CDC1551 = assay: Intrabacterial drug accumulation assay (LC-MS); conditions: 24-hour exposure, 7H9 pH 7 ± 250 mM NaCl
Mtb-infected J774 cells = conditions: 10 μM, 24 hours, 5 days post-infection

## COc1nc2ccc(Br)cc2cc1[C@@H](c1ccccc1)[C@@](O)(CCN(C)C)c1cccc2ccccc12 [bedaquiline]
Mtb [1]
  Efficacy across animals in BALB/c mice: uniform efficacy across animals
Mtb [2]
  Response in C3HeB/FeJ mice: heterogeneous response

## COc1ncc(CN2CCN(c3nc4ccccc4o3)CC2)cn1 [JSF-4271, 2-(4-((2-methoxypyrimidin-5-yl)methyl)piperazin-1-yl)benzo[d]oxazole]
[3]; 10 μM, 8-day infection time course, vs DMSO
  Effect on bacterial load / Mtb growth in primary murine BMDMs: loss of the ability to inhibit Mtb growth
[3]; day 2, average
  CFU/ml: 489333 CFU/ml
[3]; day 2, individual replicates
  CFU/ml: 446000 CFU/ml and 482000 CFU/ml and 540000 CFU/ml
[3]; day 4, average
  CFU/ml: 960000 CFU/ml
[3]; day 4, individual replicates
  CFU/ml: 1040000 CFU/ml and 1100000 CFU/ml and 740000 CFU/ml
[3]; day 6, average
  CFU/ml: 2286667 CFU/ml
[3]; day 6, individual replicates
  CFU/ml: 1960000 CFU/ml and 2060000 CFU/ml and 2840000 CFU/ml
[3]; day 8, average
  CFU/ml: 6800000 CFU/ml
[3]; day 8, individual replicates
  CFU/ml: 6000000 CFU/ml and 5400000 CFU/ml and 9000000 CFU/ml
Mtb [4]; day 3, average
  OD600: 0.2
Mtb [4]; day 3, individual replicates
  OD600: 0.2 and 0.22 and 0.18
Mtb [4]; day 6, average
  OD600: 0.4067
Mtb [4]; day 6, individual replicates
  OD600: 0.42 (2×) and 0.38
Mtb [4]; day 9, average
  OD600: 0.5267
Mtb [4]; day 9, individual replicates
  OD600: 0.54 (2×) and 0.5
Mtb [4]; day 12, average
  OD600: 0.6733
Mtb [4]; day 12, individual replicates
  OD600: 0.68 (2×) and 0.66
[5]; 10 μM, 6 days post-infection
  Inhibition of Mtb growth in J774 cells: loss of the ability to inhibit Mtb growth
[5]; average of 4 replicates
  % Growth: 107.949%
[5]; individual replicates
  % Growth: 101.522% and 116.46% and 111.935% and 101.878%
Mtb [6]; 10 μM, OD600 over 12 days
  Inhibition of Mtb growth in cholesterol media: no longer inhibited Mtb growth
Mtb [6]; day 3, average
  OD600: 0.1
Mtb [6]; day 3, individual replicates
  OD600: 0.1
Mtb [6]; day 6, average
  OD600: 0.28
Mtb [6]; day 6, individual replicates
  OD600: 0.3 (2×) and 0.24
Mtb [6]; day 9, average
  OD600: 0.4467
Mtb [6]; day 9, individual replicates
  OD600: 0.46 (2×) and 0.42
Mtb [6]; day 12, average
  OD600: 0.52
Mtb [6]; day 12, individual replicates
  OD600: 0.52 and 0.5 and 0.54
J774 cells
  Intracellular accumulation in J774 cells: minimal accumulation
[7]; average of 3 replicates
  Normalized % induction: 98.3426%
[7]; individual replicates
  Normalized % induction: 93.208% and 98.8641% and 102.956%
[7]; pH 7
  Ability to increase rv2390c′::GFP reporter signal in high [Cl−]: lost the ability
Mtb CDC1551
  Intrabacterial accumulation in Mtb: decreased accumulation
Mtb-infected J774 cells
  Accumulation in Mtb-infected J774 cells: minimal accumulation

## NC(=O)c1cnccn1 [pyrazinamide]
Mtb [1]
  Efficacy across animals in BALB/c mice: uniform efficacy across animals
Mtb [2]
  Response in C3HeB/FeJ mice: heterogeneous response
